Reference: patent US20060058270A1, “Ruthenium anticancer complexes” (priority 2002, published 2006)

Test system: A2780 ovarian cancer cell line
Assay: Cytotoxicity of Ru compounds on A2780 ovarian cancer cell line (cell count, Coulter counter)
Assay type: cell-based
Conditions: A2780 cells; 24 hours drug exposure, further 3 days growth, cells counted
Procedure: 1. Protocol for Testing Ru Compounds The compounds are tested on 24-well trays. Cells growing in a flask are harvested just before they become confluent, counted using a haemocytometer and diluted down with media to a concentration of 1×10^4 cells per ml. The cells are then seeded in the 24-well trays at a density of 1×10^4 cells per well (i.e. 1 ml of the diluted cell suspension is added to each well). The cells are then left to plate down and grow for 72 hours before adding the compounds of the invention. The Ru complexes are weighed out and made up to a concentration of 1 mg/ml with deionised water and 0.5% w/w DMSO. The appropriate volume of the Ru solution is added to 5 ml of media to make it up to a concentration of 100 μM for each drug. This 100 μM solution is then serially diluted to make up the 10 μM, 1 μM and 0.1 μM solutions. The media is removed from the cells and replaced with 1 ml of the media dosed with drug. Each concentration is done in duplicate. A set of control wells are left on each plate, containing media and 0.5% w/w DMSO without drug. The cells are left exposed to the drugs for 24 hours and then washed with phosphate buffered saline before fresh media is added. They are allowed to grow on for a further 3 days before being counted using a Coulter counter. Preparing Cells for Counting: Media is removed and 1 ml of PBS is added to the cells. 250 μl of trypsin is added and cells left in incubator for a few minutes to allow the monolayers to detach. Once trypsinised, 250 μl of media is added to each well to neutralise the trypsin. 200 μl of this suspension is added to 10 ml of NaCl for counting. Using the above protocol, a number of compounds of the invention were tested on A2780 ovarian cancer cell line. […]

Point of comparison: Cc1ccc(C(C)C)cc1.O=C([CH-]C(=O)c1ccccc1)c1ccccc1.[Cl-].[Ru+2] [Example 3, [(η^6-p-cymene)RuCl(C6H5COCHCOC6H5—O,O)]], IC50 11 µM. Against it:
- CC#N.CC(=O)C=C(C)[O][Ru+].Cc1ccc(C(C)C)cc1.F[B-](F)(F)F [Example 6, [(η^6-p-cymene)Ru(CH3CN)(H3CCOCHCOCH3—O,O)]BF4] — 2-fold higher, 22 µM
- Cc1ccc(C(C)C)cc1.O=C([CH-]C(=O)C(F)(F)F)C(F)(F)F.[Cl-].[Ru+2] [Example 2, [(η^6-p-cymene)RuCl(F3CCOCHCOCF3—O,O)]] — higher, > 100 µM
- CC(=O)C=C(C)[O][Ru][Cl].Cc1ccc(C(C)C)cc1 [Example 1, [(η^6-p-cymene)RuCl(H3CCOCHCOCH3-O,O)]] — 1.7-fold higher, 19 µM
- CC(C)(C)C(=O)[CH-]C(=O)C(C)(C)C.Cc1ccc(C(C)C)cc1.[Cl-].[Ru+2] [Example 4, [(η^6-p-cymene)RuCl((CH3)3CCOCHCOC(CH3)3—O,O)]] — within 1.5-fold, 14 µM
- CC(=O)C=C(C)[O][Ru][Cl].c1ccc(-c2ccccc2)cc1 [Example 5, [(η^6—C6H5C6H5RuCl(H3CCOCHCOCH3—O,O)]] — 1.9-fold higher, 21 µM

Test system: guanosine and adenosine
Assay: 1H NMR study of binding to DNA bases (guanosine/adenosine adduct formation)
Conditions: 500 MHz 1H NMR; guanosine:adenosine:compound mole ratio 1.3:1:1 in 10% D2O/90% H2O
From the text: The ability of the compounds of the invention to bind to DNA bases was studied by nmr and the results are illustrated in the accompanying figures in which:
FIG. 1 is a 500 MHz ^1H NMR spectrum of a mixture of guanosine:adenosine:compound of Example 1 in the mole ratio 1.3:1:1, respectively, in 10% D2O/90% H2O.
In FIG. 2, the region from 5.1 to 5.4 ppm (right) corresponds to the central CH on the acac ligand. Peaks a and b correspond to the adenosine adducts, peak c to the guanosine adduct. In the region 7.9-8.6 ppm (left), peaks for the H2 and H8 protons of adenosine and H8 protons of guanosine appear. […] The atom labelling scheme for the nucleobase part (A and G) of the nucleosides is shown.

With CC(=O)C=C(C)[O][Ru][Cl].Cc1ccc(C(C)C)cc1 [Example 1, [(η^6-p-cymene)RuCl(H3CCOCHCOCH3-O,O)]] the “adduct formation with adenosine and guanosine (binding to DNA bases)” value was “both adenosine and guanosine form adducts”.
